Test results taken from patent US20170114030A1, “COMPOSITION WITH HIGH CONTENT OF CYCLIC DIPEPTIDE” (SUNTORY HOLDINGS LIMITED, priority 2014, published 2017).

Legend:
NCI-H716 cells = test: In vitro GLP-1 secretion-accelerating action (active GLP-1 ELISA); assay type: cell-based; conditions: for Significant difference (p < 0.05) vs control group, amount of active GLP-1 secreted: 1 hour, Student's t-test; for Amount of active GLP-1 secreted (relative value to control group as 100), Average value: after 1 hour, group with no cyclic dipeptide = 100
Protocol: (§1) In the Test Examples below, data were represented as average value±standard error. In Test Examples 1, 2, and 3, a Student's t-test was used for a statistical test, and in other Test Examples, one-way ANOVA was carried out for dispersion analysis followed by a multiple comparison test by using a Dunnet's test. […] All of these analyses were carried out by using an SPSS for Windows release 17.0 (manufactured by SPSS Inc.).
Among the cyclic dipeptides, 92 highly water-soluble cyclic dipeptides were used in the following experiment. In each well of a Poly-L-Lysine 96-well plate, NCI-H716 cells suspended in 100 μL of a DMEM (with 10% FBS, 2 mM glutamine, and 1% antibiotics added in advance) were seeded at 0.5×10^5 cells/well, and cultured in a CO2 incubator (manufactured by ESPEC CORP.) for 48 hours. After washing with PBS(+), 100 μL of a PBS(+) solution with each cyclic dipeptide at a final concentration of 10 mM and 10 μM of Sitagliptin phosphate added therein was added to the cells. After 1 hour, the resultant solution was recovered, and the amount of active GLP-1 in the solution was measured by using the ELISA kit. In the analysis, the amount of active GLP-1 for a group with no cyclic dipeptide added was defined as 100, and relative values thereto were used.
In each Table, cyclic dipeptides for which an in vitro active GLP-1 secretion-accelerating activity was found and was not found are listed.

plasma active GLP-1 = test: In vivo plasma active GLP-1 level-increasing action after oral administration; parameters: species or system mice; conditions: 10 mg/kg orally; for Plasma active GLP-1 level (relative value to control group as 100), Average value: male C57/BL6J mice, blood after 30 minutes, 0.5% CMC-Na group = 100; for Significant difference (p < 0.05) vs control group, plasma active GLP-1 level: mice, 30 minutes, Student's t-test
Protocol: as §1
Among the cyclic dipeptides, cyclic dipeptides for which an in vitro GLP-1 secretion-accelerating action was found and highly lipid-soluble cyclic dipeptides were used in the following experiment. Seven-week-old male C57/BL6J mice were purchased from CLEA Japan, Inc. for use, and they were subjected to an experiment after 1 week of a habituation period. Each animal was grown in an animal room with an air conditioning system (temperature: 23.5±1.0° C., humidity: 55±10 RH %, air ventilation: 12 to 15 times/hour, illumination: from 7:00 to 19:00/day).
After the habituation period, the mice were subjected to 5.5 hours of food deprivation and 2 hours of water deprivation. Thereafter, a cyclic dipeptide dissolved or suspended in a 0.5% CMC-Na aqueous solution in 10 mg/kg was orally administered to each mouse forcibly. After 30 minutes, the blood was collected from the abdominal vena cava under anesthesia, and 1 μL of heparin sodium and 1 μL of 10 mM Sitagliptin phosphate were added to each collected blood, which was then subjected to centrifugation at 8000 rpm for 10 minutes to recover the plasma, and the plasma active GLP-1 level was measured by using the ELISA kit. In the analysis, the active GLP-1 level for a group administered with 0.5% CMC-Na aqueous solution was defined as 100, and relative values thereto were used.
In each Table, cyclic dipeptides for which an in vivo plasma active GLP-1 level-increasing action was found and was not found are listed.

SMILES: C[C@@H]1NC(=O)[C@H](CO)NC1=O [compound 25]
- Significant difference (p < 0.05) vs control group, amount of active GLP-1 secreted (NCI-H716 cells; Experiment 1, 10 mM): Yes
- Amount of active GLP-1 secreted (relative value to control group as 100), Average value (NCI-H716 cells; Experiment 1, cyclic dipeptide 10 mM with 10 μM Sitagliptin phosphate): 257
- Plasma active GLP-1 level (relative value to control group as 100), Average value (plasma active GLP-1; Experiment 1): 158
- Significant difference (p < 0.05) vs control group, plasma active GLP-1 level (plasma active GLP-1; Experiment 1): Yes

SMILES: NCCCC[C@@H]1NC(=O)[C@H](Cc2ccccc2)NC1=O [compound 63]
- Significant difference (p < 0.05) vs control group, amount of active GLP-1 secreted (NCI-H716 cells; Experiment 2, 10 mM): Yes
- Amount of active GLP-1 secreted (relative value to control group as 100), Average value (NCI-H716 cells; Experiment 2, cyclic dipeptide 10 mM with 10 μM Sitagliptin phosphate): 220
- Plasma active GLP-1 level (relative value to control group as 100), Average value (plasma active GLP-1; Experiment 1): 206
- Significant difference (p < 0.05) vs control group, plasma active GLP-1 level (plasma active GLP-1; Experiment 1): Yes

SMILES: CCC(C)C1NC(=O)C(CCC(N)=O)NC1=O (stereo not shown) [compound 182]
- Significant difference (p < 0.05) vs control group, amount of active GLP-1 secreted (NCI-H716 cells; Experiment 4, 10 mM): Yes
- Amount of active GLP-1 secreted (relative value to control group as 100), Average value (NCI-H716 cells; Experiment 4, cyclic dipeptide 10 mM with 10 μM Sitagliptin phosphate): 445
- Plasma active GLP-1 level (relative value to control group as 100), Average value (plasma active GLP-1; Experiment 2): 188
- Significant difference (p < 0.05) vs control group, plasma active GLP-1 level (plasma active GLP-1; Experiment 2): Yes

SMILES: CC(O)C1NC(=O)C(Cc2ccc(O)cc2)NC1=O (stereo not shown) [compound 90]
- Plasma active GLP-1 level (relative value to control group as 100), Average value (plasma active GLP-1; Experiment 7): 466
- Significant difference (p < 0.05) vs control group, plasma active GLP-1 level (plasma active GLP-1; Experiment 7): Yes

SMILES: CC(C)C1NC(=O)CNC1=O (stereo not shown) [compound 155]
- Plasma active GLP-1 level (relative value to control group as 100), Average value (plasma active GLP-1; Experiment 10): 55
- Significant difference (p < 0.05) vs control group, plasma active GLP-1 level (plasma active GLP-1; Experiment 10): No

SMILES: O=C1NC(Cc2c[nH]cn2)C(=O)NC1Cc1ccccc1 (stereo not shown) [compound 38]
- Plasma active GLP-1 level (relative value to control group as 100), Average value (plasma active GLP-1; Experiment 3): 264
- Significant difference (p < 0.05) vs control group, plasma active GLP-1 level (plasma active GLP-1; Experiment 3): Yes

SMILES: CC(C)CC1NC(=O)C(CC(C)C)NC1=O (stereo not shown) [compound 15]
- Plasma active GLP-1 level (relative value to control group as 100), Average value (plasma active GLP-1; Experiment 4): 95
- Significant difference (p < 0.05) vs control group, plasma active GLP-1 level (plasma active GLP-1; Experiment 4): No

SMILES: CSCCC1NC(=O)C(C(C)O)NC1=O (stereo not shown) [compound 169]
- Plasma active GLP-1 level (relative value to control group as 100), Average value (plasma active GLP-1; Experiment 10): 282
- Significant difference (p < 0.05) vs control group, plasma active GLP-1 level (plasma active GLP-1; Experiment 10): Yes

SMILES: O=C1NC(Cc2ccc(O)cc2)C(=O)N2CCCC12 (stereo not shown) [compound 30]
- Plasma active GLP-1 level (relative value to control group as 100), Average value (plasma active GLP-1; Experiment 4): 95
- Significant difference (p < 0.05) vs control group, plasma active GLP-1 level (plasma active GLP-1; Experiment 4): No

SMILES: O=C(O)CC1NC(=O)C(Cc2ccccc2)NC1=O (stereo not shown) [compound 33]
- Plasma active GLP-1 level (relative value to control group as 100), Average value (plasma active GLP-1; Experiment 4): 90
- Significant difference (p < 0.05) vs control group, plasma active GLP-1 level (plasma active GLP-1; Experiment 4): No

SMILES: CC(C)CC1NC(=O)C(C)NC1=O (stereo not shown) [compound 44]
- Plasma active GLP-1 level (relative value to control group as 100), Average value (plasma active GLP-1; Experiment 3): 255
- Significant difference (p < 0.05) vs control group, plasma active GLP-1 level (plasma active GLP-1; Experiment 3): Yes

SMILES: O=C1NC(Cc2c[nH]c3ccccc23)C(=O)NC1Cc1ccc(O)cc1 (stereo not shown) [compound 22]
- Plasma active GLP-1 level (relative value to control group as 100), Average value (plasma active GLP-1; Experiment 3): 203
- Significant difference (p < 0.05) vs control group, plasma active GLP-1 level (plasma active GLP-1; Experiment 3): Yes

SMILES: O=C1NC(Cc2ccccc2)C(=O)NC1Cc1ccccc1 (stereo not shown) [compound 17]
- Plasma active GLP-1 level (relative value to control group as 100), Average value (plasma active GLP-1; Experiment 3): 203
- Significant difference (p < 0.05) vs control group, plasma active GLP-1 level (plasma active GLP-1; Experiment 3): Yes

SMILES: CCC(C)C1NC(=O)C(Cc2cnc[nH]2)NC1=O (stereo not shown) [compound 148]
- Plasma active GLP-1 level (relative value to control group as 100), Average value (plasma active GLP-1; Experiment 10): 259
- Significant difference (p < 0.05) vs control group, plasma active GLP-1 level (plasma active GLP-1; Experiment 10): Yes

SMILES: CCC(C)C1NC(=O)C(C(C)CC)NC1=O (stereo not shown) [compound 14]
- Plasma active GLP-1 level (relative value to control group as 100), Average value (plasma active GLP-1; Experiment 4): 105
- Significant difference (p < 0.05) vs control group, plasma active GLP-1 level (plasma active GLP-1; Experiment 4): No

SMILES: NC(=O)CC1NC(=O)C(Cc2ccc(O)cc2)NC1=O (stereo not shown) [compound 92]
- Plasma active GLP-1 level (relative value to control group as 100), Average value (plasma active GLP-1; Experiment 7): 181
- Significant difference (p < 0.05) vs control group, plasma active GLP-1 level (plasma active GLP-1; Experiment 7): No

SMILES: CSCCC1NC(=O)C(CC(C)C)NC1=O (stereo not shown) [compound 72]
- Plasma active GLP-1 level (relative value to control group as 100), Average value (plasma active GLP-1; Experiment 6): 90
- Significant difference (p < 0.05) vs control group, plasma active GLP-1 level (plasma active GLP-1; Experiment 6): No

SMILES: O=C1NC(Cc2c[nH]c3ccccc23)C(=O)NC1Cc1c[nH]c2ccccc12 (stereo not shown) [compound 75]
- Plasma active GLP-1 level (relative value to control group as 100), Average value (plasma active GLP-1; Experiment 3): 229
- Significant difference (p < 0.05) vs control group, plasma active GLP-1 level (plasma active GLP-1; Experiment 3): Yes

SMILES: NC(=O)CCC1NC(=O)C(Cc2ccc(O)cc2)NC1=O (stereo not shown) [compound 93]
- Plasma active GLP-1 level (relative value to control group as 100), Average value (plasma active GLP-1; Experiment 7): 344
- Significant difference (p < 0.05) vs control group, plasma active GLP-1 level (plasma active GLP-1; Experiment 7): Yes

SMILES: CC(O)C1NC(=O)C(Cc2c[nH]c3ccccc23)NC1=O (stereo not shown) [compound 79]
- Plasma active GLP-1 level (relative value to control group as 100), Average value (plasma active GLP-1; Experiment 6): 100
- Significant difference (p < 0.05) vs control group, plasma active GLP-1 level (plasma active GLP-1; Experiment 6): No

SMILES: O=C1NC(Cc2ccc(O)cc2)C(=O)NC1Cc1ccc(O)cc1 (stereo not shown) [compound 49]
- Plasma active GLP-1 level (relative value to control group as 100), Average value (plasma active GLP-1; Experiment 5): 100
- Significant difference (p < 0.05) vs control group, plasma active GLP-1 level (plasma active GLP-1; Experiment 5): No

SMILES: CC(C)CC1NC(=O)C(Cc2ccccc2)NC1=O (stereo not shown) [compound 16]
- Plasma active GLP-1 level (relative value to control group as 100), Average value (plasma active GLP-1; Experiment 4): 105
- Significant difference (p < 0.05) vs control group, plasma active GLP-1 level (plasma active GLP-1; Experiment 4): No

SMILES: CSCCC1NC(=O)CNC1=O (stereo not shown) [compound 127]
- Plasma active GLP-1 level (relative value to control group as 100), Average value (plasma active GLP-1; Experiment 9): 124
- Significant difference (p < 0.05) vs control group, plasma active GLP-1 level (plasma active GLP-1; Experiment 9): Yes

SMILES: CCC(C)C1NC(=O)C(CO)NC1=O (stereo not shown) [compound 133]
- Plasma active GLP-1 level (relative value to control group as 100), Average value (plasma active GLP-1; Experiment 9): 133
- Significant difference (p < 0.05) vs control group, plasma active GLP-1 level (plasma active GLP-1; Experiment 9): Yes

SMILES: CCC(C)C1NC(=O)C(CC(=O)O)NC1=O (stereo not shown) [compound 162]
- Plasma active GLP-1 level (relative value to control group as 100), Average value (plasma active GLP-1; Experiment 10): 259
- Significant difference (p < 0.05) vs control group, plasma active GLP-1 level (plasma active GLP-1; Experiment 10): Yes

SMILES: O=C(O)CCC1NC(=O)C(Cc2ccc(O)cc2)NC1=O (stereo not shown) [compound 87]
- Plasma active GLP-1 level (relative value to control group as 100), Average value (plasma active GLP-1; Experiment 7): 141
- Significant difference (p < 0.05) vs control group, plasma active GLP-1 level (plasma active GLP-1; Experiment 7): No

SMILES: CC(C)C1NC(=O)C(C(C)C)NC1=O (stereo not shown) [compound 11]
- Plasma active GLP-1 level (relative value to control group as 100), Average value (plasma active GLP-1; Experiment 4): 100
- Significant difference (p < 0.05) vs control group, plasma active GLP-1 level (plasma active GLP-1; Experiment 4): No

SMILES: CC(C)CC1NC(=O)C(Cc2c[nH]cn2)NC1=O (stereo not shown) [compound 103]
- Plasma active GLP-1 level (relative value to control group as 100), Average value (plasma active GLP-1; Experiment 8): 94
- Significant difference (p < 0.05) vs control group, plasma active GLP-1 level (plasma active GLP-1; Experiment 8): No

SMILES: O=C1CNC(=O)C(Cc2ccccc2)N1 (stereo not shown) [compound 8]
- Plasma active GLP-1 level (relative value to control group as 100), Average value (plasma active GLP-1; Experiment 4): 85
- Significant difference (p < 0.05) vs control group, plasma active GLP-1 level (plasma active GLP-1; Experiment 4): No
